According to PubChem BioAssay (NCI):
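Compound exposure: 48 hours, 5 concentrations, 96-well plates. GI50 marks 50% less growth. TGI: concentration producing complete growth inhibition.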

Legend:
Assay in all cases: growth of human tumour cells (NCI), 48 h
[1] = tested on: HS 578T breast
[2] = tested on: A549 NSCLC
[3] = tested on: SF-268 CNS
[4] = tested on: SNB-19 CNS
[5] = tested on: TK-10 renal
[6] = tested on: COLO 205 colon
[7] = tested on: NCI-H23 lung
[8] = tested on: SK-MEL-28 melanoma
[9] = tested on: UACC-257 melanoma
[10] = tested on: SF-295 CNS

Compound | TGI [1] [µM] | TGI [2] [µM] | TGI [3] [µM] | TGI [4] [µM] | TGI [5] [µM] | TGI [6] [µM] | TGI [7] [µM] | TGI [8] [µM] | TGI [9] [µM] | TGI [10] [µM] | GI50 [1] [µM] | GI50 [2] [µM] | GI50 [4] [µM] | GI50 [9] [µM] | GI50 [5] [µM] | GI50 [6] [µM] | GI50 [7] [µM] | GI50 [8] [µM] | GI50 [10] [µM]
CCc1ccc2oc(-c3cc(O)c(-c4nc5cc(CC)ccc5o4)cc3O)nc2c1 | > 100 | > 100 | > 100 | > 100 | > 100 | > 100 | > 100 | > 100 | – | – | – | – | – | – | – | – | – | – | –
CCCSc1ccc2[nH]c(/N=C/c3ccco3)cc2c1 | > 100 | > 100 | > 100 | > 100 | – | 49.7 | > 100 | > 100 | > 100 | > 100 | – | – | – | – | – | – | – | – | –
O=C1c2ccccc2C(=O)N1Cc1ccccc1-c1c2nc(c(-c3ccccc3CN3C(=O)c4ccccc4C3=O)c3ccc([nH]3)c(-c3ccccc3CN3C(=O)c4ccccc4C3=O)c3nc(c(-c4ccccc4CN4C(=O)c5ccccc5C4=O)c4ccc1[nH]4)C=C3)C=C2 | – | > 100 | > 100 | – | > 100 | > 100 | > 100 | > 100 | > 100 | > 100 | – | – | – | – | – | – | – | – | –
CC(=O)C1=C(C)NC2C=CC=CN12 (stereo not drawn) | – | > 100 | > 100 | > 100 | > 100 | > 100 | > 100 | > 100 | > 100 | > 100 | – | – | – | – | – | – | – | – | –
Cc1cn(C(Cc2ccccc2)OCCO)c(=O)[nH]c1=O (stereo not drawn) | – | > 100 | – | > 100 | – | > 100 | > 100 | > 100 | > 100 | > 100 | – | – | – | – | – | – | – | – | –
CNC(=O)Oc1ccc(-c2cn3cc(OC(=O)NC)ccc3n2)cc1 | – | > 100 | 75 | > 100 | > 100 | > 100 | > 100 | > 100 | > 100 | > 100 | – | – | – | – | – | – | – | – | –
Cc1[nH]c(=O)[nH]c(=O)c1/C=C/C(=O)O | – | > 1000 | > 1000 | > 1000 | – | > 1000 | > 1000 | > 1000 | > 1000 | > 1000 | – | – | – | – | – | – | – | – | –
CCCCCCCCCCCCCCCCCC(=O)O[C@H](COC(=O)CCCCCCCCCCC)COC(=O)CCCCCCCCCCCCCCC | – | > 100 | > 100 | > 100 | > 100 | > 100 | > 100 | > 100 | > 100 | > 100 | – | – | – | – | – | – | – | – | –
COC(=O)C1=C2SCc3cccc(c3)CSC3=C(C(=O)OC)SC(=C(S2)S1)S3 | – | > 100 | – | > 100 | > 100 | > 100 | – | > 100 | > 100 | > 100 | – | – | – | – | – | – | – | – | –
CC1CCOc2ccc(cc2)C=Nc2ccc(cc2)CCc2ccc(cc2)N=Cc2ccc(cc2)OCC1 (stereo not drawn) | > 100 | > 100 | > 100 | > 100 | – | > 100 | > 100 | > 100 | > 100 | > 100 | – | – | – | – | – | – | – | – | –
C1CCC2C(C1)CCCC2NC1=NCCO1 (stereo not drawn) | – | > 100 | > 100 | > 100 | > 100 | > 100 | > 100 | > 100 | > 100 | > 100 | – | – | – | – | – | – | – | – | –
O=c1[nH]/c(=C/c2ccc(OCc3ccccc3)cn2)c(=O)[nH]/c1=C/c1ccc(O)cc1 | > 100 | > 53.5 | – | > 100 | 3.03 | 10.3 | 5.44 | > 100 | > 100 | > 100 | – | – | – | – | – | – | – | – | –
O=C(CSc1nnc(Cc2ccccc2)o1)Nc1ccc([N+](=O)[O-])cc1 | – | > 100 | > 100 | – | > 100 | > 100 | > 100 | > 100 | > 100 | > 100 | – | – | – | – | – | – | – | – | –
CC(=O)OC1CC2C(C)(C)OC(=O)CC(OC(C)=O)[C@]2(C)C2CCC3(C)C(=CCC3[C@H]3COC(=O)C3)[C@]12C (stereo partly drawn) | – | > 100 | > 100 | > 100 | > 100 | > 100 | > 100 | > 100 | – | > 100 | – | – | – | – | – | – | – | – | –
COc1cc(Nc2c3ccccc3nc3ccccc23)ccc1NS(C)(=O)=O | – | 12.3 | 25.5 | 48 | – | 16.1 | – | 20.4 | 24.2 | 15.2 | – | – | – | – | – | – | – | – | –
c1cc2nnnn2nc1N1CCCC1 | – | > 100 | > 100 | > 100 | > 100 | > 100 | > 100 | > 100 | > 100 | > 100 | – | – | – | – | – | – | – | – | –
COC(=O)[C@@H]1CCCN1CCN1CCC[C@H]1C(=O)OC | – | > 100 | > 100 | > 100 | > 100 | > 100 | > 100 | > 100 | – | > 100 | – | – | – | – | – | – | – | – | –
O=C(NC(Cc1ccc(I)cc1)C(=O)O)c1ccc(Br)cc1 (stereo not drawn) | – | > 100 | > 100 | > 100 | – | > 100 | > 100 | > 100 | > 100 | > 100 | – | – | – | – | – | – | – | – | –

Compound | TGI [1] [µM] | TGI [2] [µM] | TGI [3] [µM] | TGI [4] [µM] | TGI [5] [µM] | TGI [6] [µM] | TGI [7] [µM] | TGI [8] [µM] | TGI [9] [µM] | TGI [10] [µM] | GI50 [1] [µM] | GI50 [2] [µM] | GI50 [4] [µM] | GI50 [9] [µM] | GI50 [5] [µM] | GI50 [6] [µM] | GI50 [7] [µM] | GI50 [8] [µM] | GI50 [10] [µM]
O=C1Nc2c(ccc(Cl)c2I)C1=O | – | > 100 | 39.4 | > 100 | 99.2 | 30.8 | 30.7 | 32.7 | – | 36.5 | – | – | – | – | – | – | – | – | –
COc1cc(C2SCC(=O)N2c2ccc(-c3ccc(-n4c(-c5ccccc5)nc5ccccc5c4=O)cc3)cc2)cc(OC)c1OC (stereo not drawn) | > 100 | > 100 | > 100 | > 100 | > 100 | > 100 | > 100 | > 100 | – | – | – | – | – | – | – | – | – | – | –
C=CCCC(=O)CC(O)(C(F)(F)F)C(F)(F)F | > 100 | > 100 | – | > 100 | > 100 | > 100 | > 100 | > 100 | > 100 | > 100 | – | – | – | – | – | – | – | – | –
NC1=NS(=O)(=O)Nc2nc(-c3ccc([N+](=O)[O-])cc3)[nH]c21 | – | > 100 | > 100 | > 100 | > 100 | > 100 | > 100 | > 100 | – | > 100 | – | – | – | – | – | – | – | – | –
CC(=O)Nc1cc2c(s1)CCC1CC(=O)NN=C21 (stereo not drawn) | – | > 100 | > 100 | > 100 | > 100 | > 100 | > 100 | > 100 | – | > 100 | – | – | – | – | – | – | – | – | –
O=C(OCC1OC2OC(c3ccccc3)(n3ccc4c([N+](=O)[O-])ccnc43)OC2C1OC(=O)c1ccccc1)c1ccccc1 (stereo not drawn) | > 100 | > 100 | – | > 100 | > 100 | – | > 100 | > 100 | > 100 | > 100 | – | – | – | – | – | – | – | – | –
COC(=O)C1=CC(=O)OC1(OO)c1ccccc1 (stereo not drawn) | – | > 100 | – | > 100 | > 100 | > 100 | > 100 | > 100 | > 100 | > 100 | – | – | – | – | – | – | – | – | –
C[C@]12CCc3nc(Nc4ccccc4)sc3C1=CC[C@@H]1[C@@H]2CC[C@]2(C)/C(=N/NC(N)=S)CC[C@@H]12 | > 100 | > 100 | – | > 100 | > 100 | > 100 | > 100 | > 100 | > 100 | 72.3 | > 100 | 8.5 | 10.3 | 6.1 | 46.4 | 4.49 | 6.15 | 4.49 | 3.75
CC(C)C(=O)/C=C/c1ccc(Br)cc1 | – | 65.5 | 48.4 | 29.8 | 32.3 | 56.1 | 38.2 | 41 | 30.8 | 29.9 | – | – | – | – | – | – | – | – | –
O=C1CCCCC(=O)OC2(CCCCC2=O)CC1 (stereo not drawn) | – | > 100 | > 100 | – | > 100 | > 100 | > 100 | > 100 | > 100 | > 100 | – | – | – | – | – | – | – | – | –
N#C/C(=C\n1ccc(=O)[nH]c1=S)C(N)=O | > 100 | > 100 | > 100 | > 100 | – | > 100 | > 100 | > 100 | > 100 | > 100 | – | – | – | – | – | – | – | – | –
Nc1ccc(N=Nc2ccccc2)cc1 | > 100 | > 100 | – | > 100 | > 100 | > 100 | > 100 | > 100 | > 100 | 57.1 | – | – | – | – | – | – | – | – | –
NC1=NS(=O)(=O)Nc2nc(-c3ccc(Cl)cc3)c(-c3ccc(Cl)cc3)nc21 | – | > 100 | > 100 | > 100 | > 100 | > 100 | > 100 | > 100 | > 100 | > 100 | – | – | – | – | – | – | – | – | –
COc1ccc(O)cc1 | – | > 100 | > 100 | > 100 | > 100 | > 100 | > 100 | > 100 | > 100 | – | – | – | – | – | – | – | – | – | –
Nn1c(CCCCCCCCc2nnc(COc3ccc(Cl)cc3)n2N)nnc1COc1ccc(Cl)cc1 | – | > 100 | > 100 | > 100 | > 100 | > 100 | > 100 | > 100 | > 100 | > 100 | – | – | – | – | – | – | – | – | –
Oc1cc(C2OCCCO2)cc(O)c1O | – | > 100 | > 100 | > 100 | > 100 | > 100 | > 100 | > 100 | > 100 | > 100 | – | – | – | – | – | – | – | – | –
CCCC(C)NC1=C(NC(C)=O)C(=O)c2ccccc2C1=O (stereo not drawn) | – | > 100 | > 100 | > 100 | > 100 | > 100 | > 100 | > 100 | > 100 | > 100 | – | – | – | – | – | – | – | – | –
